{"source": "patent US10240124B2", "about": "“Cell culture substrate comprising a laminin and a cadherin” (BioLamina AB, priority 2011, dated 2019)", "key": {"[1]": {"tested_on": "human ES cells (HS181)", "assay": "Cell adhesion assay, Crystal Violet (Example 1)", "assay_type": "cell-based", "settings": "for cells remaining attached / surviving 24 hours after plating: HS181 completely dissociated, FIG. 4", "protocol": "Ninety-six-well tissue cell culture plates were coated overnight at 4° C. with sterile solutions of the ECM proteins mouse LN-111 (Invitrogen), human recombinant LN-511, and human recombinant LN-521, all at a concentration of 30 μg/ml (5 μg/cm^2). For control cells, BD Matrigel™ hESC qualified (BD Biosciences) was used according to the manufacturer's instructions.\nThe assay was performed as described (Extracellular Matrix Protocols, 2000). Briefly, 96-well plates were coated by extracellular matrix proteins as described above and blocked by O3 medium containing bovine serum albumin. The ES cells were plated at a cell density of 600 cell/mm^2 upon extracellular matrix-coated plates and were left to adhere for either 1 hour or 1 day at the cell incubator. Non-adherent cells were washed away, and adherent cells were fixed for 20 min by 5% glutaraldehyde, stained by 0.1% Crystal Violet."}, "[2]": {"tested_on": "hES cells", "assay": "Cell survival assay, 24 hours (Example 2)", "assay_type": "cell-based, human", "settings": "for survival of hES cells 24 hours after plating from single cell suspension: O3 medium, absence of ROCK inhibitor; for survival of dissociated hES cells after 24 hours: quantified survival assay", "protocol": "(§1) Briefly, 96-well plates were coated by extracellular matrix proteins as described above and blocked by O3 medium containing bovine serum albumin. The ES cells were plated at cell density of 50,000 cells/cm^2 onto extracellular matrix-coated plates and left to adhere for 1 hour in a cell incubator. After that the plates were washed 3 times with the medium to remove the non-adherent cells, and then the adherent cells were fixed for 20 minutes by 5% glutaraldehyde, stained by 0.1% Crystal Violet. (Kebo Lab, Spanga, Sweden, http://www.kebolab.se). After one hour and 3 washes with water, Crystal Violet was extracted with 10% acetic acid and quantified by measuring optical density at 570 nm. All the experiments were performed in quadruplicate.\nThe survival assay was performed as described for the cell adhesion assay above, except that the cells were left in the cell incubator for 24 hours. For inhibition of survival assay, the cells were kept in a medium with function blocking antibodies at the concentrations recommended by the manufacturer or pathway inhibitors at concentrations indicated in the text for 30 minutes, and then plated on the coated dishes. All the experiments were performed in quadruplicate.\nPluripotent hES cells express α1, α5, β1, β2 and γ1 laminin chains. To compare the adhesion and clonal survival of hES cells plated from single cell suspension to different coating substrata, hES cells growing as monolayers on LN-511 or as clusters on a feeder layer were trypsinized into single cell suspension in O3 medium and plated on cell culture dishes coated with Matrigel, LN-111, LN-511, LN-521 or a mixture of LN-511 and LN-521, in the absence or presence of a ROCK inhibitor (Y-27632) and analyzed after 24 hours."}, "[3]": {"tested_on": "hES cells on LN-521", "assay": "Inhibition of survival assay on LN-521", "assay_type": "cell-based, human", "settings": "medium contained bFGF, FIG. 16", "excerpt": "InSolution™ LY 294002 (a specific Akt inhibitor), InSolution™ Wortmannin (a specific PI3K inhibitor), and InSolution™ 98059 (a specific MEK1/Erk inhibitor) were purchased from Calbiochem. Antibodies to phospho-Akt (#4060), total-Akt (#9272), phospho-Erk (#9101), and total-Erk (#9102) were obtained from Cell Signaling Technology. PathScan Phospho-Akt1 sandwich ELISA kit (#7160), PathScan total Akt1 sandwich ELISA kit (#7170), PathScan Phospho-Akt2 sandwich ELISA kit (#7048), and PathScan total Akt2 sandwich ELISA kit (#7046) were also purchased from Cell Signaling Technology. Antibodies to Calnexin (#ab10286) were obtained from Abcam. Function blocking antibodies to various integrin subunits, mouse isotype antibodies, and α-dystroglycan were purchased from Millipore. Since function blocking antibodies to αV (MAB1980) and α6 (MAB1378) were presented in a solution with sodium azide, before the inhibition of survival experiment all the antibodies to alpha integrin subunits were dialyzed thrice against O3 medium for 2 hours each time. Antibodies to Lutheran receptor and α-fetoprotein, as well as rat isotype control antibodies were obtained from R&D Systems. Antibodies to Oct4, Nanog, SSEA-4, smooth muscle actin and MAP-2 were purchased from Millipore. […]"}, "[4]": {"tested_on": "hES cells", "assay": "Clonal survival of individualized hES cells, alkaline phosphatase staining (Example 4)", "assay_type": "cell-based, human", "protocol": "hES cells were plated in mTeSR1 medium on different coatings at a density of 250 cells per cm^2 and monitored after 5 days in culture using an alkaline phosphatase staining kit.\nNext, combinations of laminin-521 and E-Cadherin were tested to determine whether the combinations could sustain clonal survival of the cells. Fixed amounts of laminin-521 were used for the cell culture dish coating in combination with titrated E-Cadherin.\nAdditional tests were performed to test the effects of various modifications to the mTeSR1 medium. A mixture of E-Cadherin to laminin-521 in a ratio of about 1:10 w/w was used to coat the plates. […] Time-lapse photography of the cells confirmed that laminin-521/E-Cadherin coatings facilitated cell survival through proliferation of the single cells, not through the aggregation of different cells."}, "[5]": {"tested_on": "human embryonic stem cells", "assay": "Survival of hES cells plated in single cell suspension on precoated dishes (description)", "assay_type": "cell-based", "settings": "O3 medium, 30 Kcells/cm^2", "excerpt": "In other aspects, the present disclosure provides a new material, isolated laminin-521, which permits human embryonic stem cell survival after dissociation into single cell suspension. The stem cells were dissociated into single cell suspension by Trypsin-EDTA treatment, pelleted by centrifugation, resuspended into O3 medium, filtered through a 40 μm sieve, and plated at a density of 30 Kcells/cm^2 on cell culture dishes precoated by either isolated laminin-521, laminin-511, or Matrigel. After one day in culture, the cells plated on Matrigel died, as is known in the art."}, "[6]": {"tested_on": "hES cells", "assay": "Cell adhesion assay, 1 hour (Example 2)", "assay_type": "cell-based, human", "settings": "compared with Matrigel or LN-111, not shown", "protocol": "Tissue cell culture plates were coated overnight at 4° C. with sterile solutions of the ECM proteins, such as human recombinant LN-521, all at a concentration of 30 μg/ml (5 μg/cm^2). Control plates were coated with Matrigel according to the STEMCELL Technologies' instructions. Prior to use, dishes were pre-warmed in an incubator for one hour after which prewarmed O3 medium was added without additional washing of the dish. After applying a fresh LN-521 solution to a new dish, the remaining LN-521 solution could be used at least once more. All the adhesion, survival, and inhibition of survival experiments were carried out using fresh coating materials.\nas §1"}, "[7]": {"tested_on": "myosin light chain (MLC)", "assay": "Western blot of phosphorylated myosin light chain", "assay_type": "cell-based, human", "settings": "one and six hours after plating, FIG. 12 and 13", "protocol": "HS 181 cells were trypsinized into single cell suspension as described above. For inhibition experiments, the cells were kept in O3 medium with blocking antibodies or pathway inhibitors for 30 minutes and then 450K cells were plated on 35 mm dishes precoated with the appropriate matrix coating. For other experiments, same number of cells was plated directly after trypsinization. […] After two washings in ice-cold PBS, the plates with cells were snap frozen in liquid nitrogen and stored at −80° C. To prepare samples for western blots and ELISA, the plates were slowly thawed and kept on ice with 100-150 μl of lysis buffer (50 mM Tris-HCl, pH7.5, 150 mM NaCl, 0.5% deoxycholate, 0.5% SDS, 1% Triton X-100, 1% Igepal, Complete™ (Roche) and Phospho-Stop™ (Roche)) on top. Then, the cells were scraped, pipetted and sheared through a 27 G ¾″ needle. After that, the cell pellets were clarified by centrifugation at 16,100 rcf for 15 minutes at 4° C. For western blots, 4-12% gradient gels were used for SDS electrophoresis and the proteins were transferred to PVDF membranes. The membrane was hybridized with the antibody of interest according to the manufacturer's instructions. […] For the densitometry analysis the films were scanned at 2,400 dpi and analyzed by the Chemilmager5500 program (1 D-Multi Line densitometry mode). […]"}, "[8]": {"molecular_target": "Integrin α6β1 (Homo sapiens, UniProt P05556+P23229)", "sequence (P23229 24-1130)": "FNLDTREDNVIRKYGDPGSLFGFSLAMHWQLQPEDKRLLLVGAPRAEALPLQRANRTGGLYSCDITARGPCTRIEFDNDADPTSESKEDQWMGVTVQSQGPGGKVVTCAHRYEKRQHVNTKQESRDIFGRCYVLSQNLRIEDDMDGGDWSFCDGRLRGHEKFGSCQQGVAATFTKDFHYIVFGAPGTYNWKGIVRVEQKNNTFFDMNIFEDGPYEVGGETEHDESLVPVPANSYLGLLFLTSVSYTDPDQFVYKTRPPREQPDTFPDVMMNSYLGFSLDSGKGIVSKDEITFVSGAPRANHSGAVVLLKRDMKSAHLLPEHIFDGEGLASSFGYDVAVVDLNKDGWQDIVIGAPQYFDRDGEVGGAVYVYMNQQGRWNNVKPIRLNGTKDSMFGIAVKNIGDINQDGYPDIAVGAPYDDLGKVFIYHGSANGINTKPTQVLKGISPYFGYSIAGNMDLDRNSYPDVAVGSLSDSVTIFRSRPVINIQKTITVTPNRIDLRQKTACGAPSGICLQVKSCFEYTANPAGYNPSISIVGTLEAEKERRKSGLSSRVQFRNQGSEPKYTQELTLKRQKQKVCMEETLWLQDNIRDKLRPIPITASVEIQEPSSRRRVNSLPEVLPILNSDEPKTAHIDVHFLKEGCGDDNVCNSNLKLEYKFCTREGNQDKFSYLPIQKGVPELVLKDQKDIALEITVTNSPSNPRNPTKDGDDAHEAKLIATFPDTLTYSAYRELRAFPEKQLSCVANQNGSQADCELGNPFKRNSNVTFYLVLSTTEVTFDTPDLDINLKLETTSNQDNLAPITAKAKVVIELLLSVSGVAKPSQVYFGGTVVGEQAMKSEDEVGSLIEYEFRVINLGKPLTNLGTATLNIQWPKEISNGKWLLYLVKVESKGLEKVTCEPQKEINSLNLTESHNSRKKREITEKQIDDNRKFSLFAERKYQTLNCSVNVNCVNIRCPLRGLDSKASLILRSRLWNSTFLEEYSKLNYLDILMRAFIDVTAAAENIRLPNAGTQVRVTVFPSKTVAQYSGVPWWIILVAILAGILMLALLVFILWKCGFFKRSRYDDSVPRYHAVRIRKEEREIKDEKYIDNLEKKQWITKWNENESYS", "sequence (P05556 21-798)": "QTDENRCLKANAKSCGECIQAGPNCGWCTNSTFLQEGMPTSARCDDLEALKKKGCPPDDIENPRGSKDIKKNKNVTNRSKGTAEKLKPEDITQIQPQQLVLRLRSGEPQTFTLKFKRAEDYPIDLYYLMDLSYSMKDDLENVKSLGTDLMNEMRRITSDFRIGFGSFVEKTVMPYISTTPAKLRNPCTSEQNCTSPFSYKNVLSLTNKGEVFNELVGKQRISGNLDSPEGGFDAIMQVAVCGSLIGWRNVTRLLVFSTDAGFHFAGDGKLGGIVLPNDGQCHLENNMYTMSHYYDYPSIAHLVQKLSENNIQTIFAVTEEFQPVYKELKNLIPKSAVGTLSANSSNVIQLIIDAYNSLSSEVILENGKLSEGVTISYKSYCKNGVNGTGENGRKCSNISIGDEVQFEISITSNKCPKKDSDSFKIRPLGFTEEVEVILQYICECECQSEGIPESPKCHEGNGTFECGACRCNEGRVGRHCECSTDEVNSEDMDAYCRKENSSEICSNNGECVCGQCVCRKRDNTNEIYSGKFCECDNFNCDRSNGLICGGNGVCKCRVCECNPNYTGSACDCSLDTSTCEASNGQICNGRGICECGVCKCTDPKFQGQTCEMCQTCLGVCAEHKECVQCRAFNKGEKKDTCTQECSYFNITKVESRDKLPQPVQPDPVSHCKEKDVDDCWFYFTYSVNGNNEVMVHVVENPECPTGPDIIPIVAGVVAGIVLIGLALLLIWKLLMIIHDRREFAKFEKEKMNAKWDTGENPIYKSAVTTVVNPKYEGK", "settings": "cited from earlier work"}, "[9]": {"tested_on": "Human ES cells", "settings": "over 3 months; engraftment into SCID mice; cited from earlier work"}, "[10]": {"settings": "O3 medium without any additives"}}, "data": [{"molecule": "LN-111: mouse laminin-111 (Invitrogen), indicated as LN-111 if not otherwise stated", "values": [{"measurement": "cells remaining attached / surviving 24 hours after plating", "setting": "[1]; [10]", "result": "almost no cells remained attached"}, {"measurement": "survival of hES cells 24 hours after plating from single cell suspension", "setting": "[2]", "result": "did not survive"}, {"measurement": "survival of dissociated hES cells after 24 hours", "setting": "[2]", "result": "almost no cells had survived"}]}, {"molecule": "C[C@@H](N)[C@H]1CC[C@H](C(=O)Nc2ccncc2)CC1", "note": "[Y-27632, reference compound]", "values": [{"measurement": "cells remaining attached after one day with ROCK inhibitor", "setting": "[1]; O3 medium treated with Y-27632, five coatings, FIG. 5", "result": "remained attached on all 5 coatings"}, {"measurement": "survival of hES cells 24 hours after plating in the presence of ROCK inhibitor", "setting": "[2]; Y-27632, all coatings", "result": "survived on all surfaces"}]}, {"molecule": "COc1cccc(-c2cc(=O)c3ccccc3o2)c1N", "note": "[PD 98059]", "values": [{"measurement": "hES cell survival 24 hours after plating on LN-521 with pathway inhibitor", "setting": "[3]", "result": "did not affect the survival that severely"}]}, {"molecule": "albumin: albumin of the mTeSR1 medium, concentration increased 2×", "values": [{"measurement": "effect of 2× increase in albumin concentration on clonal survival", "setting": "[4]; laminin-521/E-Cadherin matrix, mTeSR1", "result": "significantly improved clonal survival"}]}, {"molecule": "human recombinant LN-111: human recombinant laminin of α1, β1 and γ1 chains from triple-transfected HEK293 cells", "values": [{"measurement": "survival of hES cells 24 hours after plating from single cell suspension", "setting": "[2]", "result": "failed to survive"}]}, {"molecule": "LN-511: human recombinant laminin-511, control coating", "values": [{"measurement": "survival of human embryonic stem cells after one day in culture", "setting": "[5]", "result": "in most cases on laminin-511 survived"}, {"measurement": "cells remaining attached / surviving 24 hours after plating", "setting": "[1]; [10]", "result": "at a less extent"}, {"measurement": "adhesion of human ES cells at 1 hour", "setting": "[1]; O3 medium without any additives, without Y-27632, FIG. 6", "result": "roughly the same"}, {"measurement": "spreading of the cells after one hour", "setting": "[6]", "result": "clearly better"}, {"measurement": "survival of hES cells 24 hours after plating from single cell suspension", "setting": "[2]", "result": "did so as single cells"}, {"measurement": "survival of dissociated hES cells after 24 hours", "setting": "[2]", "result": "very few"}, {"measurement": "phosphorylation of MLC compared with cells on Matrigel and LN-111", "setting": "[7]", "result": "even higher"}, {"measurement": "binding affinity of integrin α6β1 compared with LN-111", "setting": "[8]", "result": "higher than that for LN-111"}, {"measurement": "pluripotency of human ES cells in long-term culture", "setting": "[9]", "result": "maintain pluripotency and can generate teratomas"}]}, {"molecule": "LN-121: human recombinant laminin of α1, β2 and γ1 chains from triple-transfected HEK293 cells", "values": [{"measurement": "survival of hES cells 24 hours after plating from single cell suspension", "setting": "[2]", "result": "failed to survive"}]}, {"molecule": "E-Cadherin: epithelial-cadherin, most abundant cadherin isoform on the human ES cell surface; coating protein (protein, UniProt P12830 155-882, looked up) Cadherin-1: DWVIPPISCPENEKGPFPKNLVQIKSNKDKEGKVFYSITGQGADTPPVGVFIIERETGWLKVTEPLDRERIATYTLFSHAVSSNGNAVEDPMEILITVTDQNDNKPEFTQEVFKGSVMEGALPGTSVMEVTATDADDDVNTYNAAIAYTILSQDPELPDKNMFTINRNTGVISVVTTGLDRESFPTYTLVVQAADLQGEGLSTTATAVITVTDTNDNPPIFNPTTYKGQVPENEANVVITTLKVTDADAPNTPAWEAVYTILNDDGGQFVVTTNPVNNDGILKTAKGLDFEAKQQYILHVAVTNVVPFEVSLTTSTATVTVDVLDVNEAPIFVPPEKRVEVSEDFGVGQEITSYTAQEPDTFMEQKITYRIWRDTANWLEINPDTGAISTRAELDREDFEHVKNSTYTALIIATDNGSPVATGTGTLLLILSDVNDNAPIPEPRTIFFCERNPKPQVINIIDADLPPNTSPFTAELTHGASANWTIQYNDPTQESIILKPKMALEVGDYKINLKLMDNQNKDQVTTLEVSVCDCEGAAGVCRKAQPVEAGLQIPAILGILGGILALLILILLLLLFLRRRAVVKEPLLPPEDDTRDNVYYYDEEGGGEEDQDFDLSQLHRGLDARPEVTRNDVAPTLMSVPRYLPRPANPDEIGNFIDENLKAADTDPTAPPYDSLLVFDYEGSGSEAASLSSLNSSESDKDQDYDYLNEWGNRFKKLADMYGGGEDD", "values": [{"measurement": "clonal survival of individualized hES cells", "setting": "[4]; mTeSR1, 250 cells per cm^2, 5 days", "result": "Neither laminin-521 nor E-Cadherin alone permitted efficient clonal survival"}]}]}
